Molecules are shown by their SMILES.

Compound `Cc1cc(C=O)cc(Oc2[nH]c(=O)[nH]c(=O)c2C(C)C)c1` gave a melting point of 241 to 242 °C.
Under `Nc1nc(Nc2ccccc2)sc1C=O` stands 212 to 213 °C; under `CCN1C(Oc2ccc(C)cc2)=NS(=O)(=O)N=C1Oc1ccc(C)cc1`, 302 to 304 °C.
Under `C#CCN1C(=O)N(c2ccc(C#N)c(C(F)(F)F)c2)C(=O)C1(CF)CF` stands 126 to 127 °C; under `Cc1cc(Cl)nc(Br)c1`, 76 °C.
The result for `CCOC(=O)C(Cc1ccc(O)cc1)C(=O)OCC` reads 45 °C; that for `COc1cc(NC(C)=O)c(Cl)cc1NC(=O)N1CCN(Cc2ccccc2)CC1`, 174 °C.
Turning to `O=c1[nH]c2ccc(C3=NOC(CN4CCC(c5ccc(F)cc5)CC4)C3)cc2o1` (stereo not drawn), the melting point was 214 to 217 °C.
The result for `CC(C)CC(NCC(=O)NOCc1ccccc1)C(=O)NC(Cc1ccc2ccccc2c1)C(=O)NC(C)C(N)=O` (stereo not drawn) reads 205 to 212 °C.
In turn, `CC1CCC(N(CC2CCC(CN(C(=O)Nc3ccc(N4CCCCC4)cc3)C3CCC(C)CC3)CC2)C(=O)Nc2ccc(N3CCCCC3)cc2)CC1` (stereo not drawn) returned a melting point of 161 to 165 °C.
Under `O=c1cc(NCC2CCCO2)oc2c1ccc1ccccc12` (stereo not drawn) stands 139 to 140 °C.
The result for `C[C@@H](NC(=O)c1cnn(-c2ccc(Cl)cc2)c1N)[C@](O)(Cn1cncn1)c1ccc(F)cc1F` reads 181 to 182 °C; that for `CC(C)c1cccc(-c2ccc(F)cc2)c1/C=C/CO`, 71 to 72 °C.
Turning to `CN(CCCNC(=O)CSc1nc2ccc(N(C)C)nc2s1)Cc1ccc(Cl)c(Cl)c1`, the melting point was in the range of 92 to 93 °C.
The result for `COc1ccc2c(c1)C(Oc1ccccc1)=C(C(=O)O)S2=O` (stereo not drawn) reads 204 to 206 °C.
The result for `Cc1cc2c(cc1S(N)(=O)=O)S(=O)(=O)NC(C1CCCCC1)N2` (stereo not drawn) reads 231 to 233 °C; that for `Cc1nc(-c2cc(C)c(OCCCc3cnc4ccccc4c3)c(C)c2)no1`, 105 to 107 °C.
The result for `O=C1C(=Cc2ccc([N+](=O)[O-])cc2)CCc2cc(OCCn3ccnc3)ccc21` reads 184 to 185 °C.
`Cc1nc(N2CCC(Cc3ccc(OC(F)(F)F)cc3)C2=O)sc1C(=O)NCc1cccnc1` (stereo not drawn): the melting point lay in the range of 158 to 160 °C.
Under `CC(CSS)C(=O)Nc1ncccc1C(=O)O` (stereo not drawn) stands 95 to 100 °C; under `CNc1cc(OC)cc(NCCOC)c1[N+](=O)[O-]`, 84 °C.
The result for `O=C(O)COc1ccc2c(c1)CC(NS(=O)(=O)c1ccc(Cl)cc1)C2` (stereo not drawn) reads 170 to 172 °C.
`CCOc1nc2c(nc1C(=O)Cl)c(C)nn2CC` returned a melting point of 109 to 111 °C.
The result for `O=C(O)C1CCCCc2c(-c3ccc(Cl)cc3)noc2C1` (stereo not drawn) reads 215 °C; that for `CCn1nc(-c2ccccc2)c(C(C)=O)c(Nc2cccc(F)c2)c1=O`, 176 to 178 °C.
As for `Oc1nsnc1-c1ccc(Cl)cc1`, the melting point was 240 to 242 °C.
Under `O=C1CC(N2C=Nc3cccc(Br)c3C2)C(=O)N1` (stereo not drawn) stands 214 to 217 °C; under `CNC(=O)NC1CC(N)(C(=O)O)C2C(C(=O)O)C12` (stereo not drawn), over 275 °C.
The result for `CC(C)(C)OC1CCC2(C)C(=CCC3C4CCC(=O)C4(C)CCC32)C1` (stereo not drawn) reads 185 to 187 °C; that for `CCCCc1nc(Cl)c(CC#N)n1Cc1ccc(C#N)cc1`, 110 to 113 °C; that for `CCCCCCCCCCCCCCCCS(=O)(=O)Nc1cccc(C(=O)CBr)c1`, 92 to 95 °C.
Under `CCc1nc(NC)sc1-c1ccncc1` stands 146 to 149 °C; under `C=CC(=O)N1CCC(C(=O)O)CC1`, 109 to 110 °C; under `CCNc1nnc(-c2ccc3ncn(-c4ccc(SC)cc4)c3c2)o1`, 226 to 227 °C.
In turn, `CC1(C)CCC(C)(C)c2cc(C=O)c(Br)cc21` returned a melting point of 114 °C.
The compound `CCCOc1ncc(NC(C)C(=O)OC)cc1-c1nc2c(CCC)nn(C)c2c(=O)[nH]1` (stereo not drawn) came in with a melting point of 185 to 187 °C.
Under `O=c1c2c(N3CCNCC3)cc(Cl)cc2n(Cc2ccccc2)c(=O)n1CCCc1ccccc1` stands 62 to 68 °C; under `CCOC(=O)Cc1csc2nc(C(=O)NCc3cccc(OC)c3)[nH]c(=O)c12`, 169 to 171 °C; under `O=c1[nH]c2ccccc2n1C1=CCN(C2C=CC(c3ccc(F)cc3)(c3ccc(F)cc3)CC2)CC1` (stereo not drawn), 200 to 202 °C.
The result for `Cn1nc(-c2ccccc2)c(C2CCCCC2)c1N` reads 212 to 214 °C; that for `Cc1cc(Cl)ccc1N=CN(C)SN(C)c1ccccc1`, 65 to 67 °C; that for `CCOC(C)O[C@H]1C(=O)N(C(=O)Nc2ccccc2)[C@H]1c1ccccc1` (stereo partly drawn), 152 to 155 °C.
The result for `CC(CCCC(C)(C)O)C1CCC2C3CC=C4CC(O)CCC4(C)C3CCC12C` (stereo not drawn) reads 168 to 175 °C.
The compound `CC1CC(=O)NN=C1c1ccc2c(c1)N(C1CCCC1)C(=O)C(C)O2` (stereo not drawn) registered a melting point of 220 to 223 °C.
Under `CC(C)Nc1cccnc1N1CCN(C(=O)c2ccc(C(=O)NCCCO)cn2)CC1` stands 139 to 140 °C; under `COC(=O)c1ccc(SC(Cn2ccnc2)c2ccccc2C(F)(F)F)cc1` (stereo not drawn), 121 to 126 °C.
The result for `CCOC(=O)c1ccc(-c2cc3c(NCc4ccc(OC)nc4)ncnc3[nH]2)cc1` reads 305 °C; that for `Cc1ccc(-c2ccc([C@H](C)N3CC[C@](CC(C)(C)O)(c4ccccc4)OC3=O)cc2)nn1`, 150 to 152 °C; that for `COc1cccc2c(Nc3ccc(C)c(O)c3)c(C#N)cnc12`, 148 to 150 °C.
Under `O=[N+]([O-])N=C1NCCN1Cc1cc(Br)no1` stands 149 °C; under `OC(Cc1ccc(Cl)cc1)(Cn1ccnc1)c1ccc2c(c1)Cc1cc(Cl)ccc1-2` (stereo not drawn), 218 °C; under `CCCCc1nc2c(N)nc3cc(Br)ccc3c2n1CC(C)C`, 198 to 200 °C.
As for `O=S(=O)(CCl)c1c(Cl)nc(Cl)nc1Cl`, the melting point lay within 152 to 153 °C.
The result for `COc1ccc(S(=O)(=O)N2c3ccc(Br)cc3-c3ccccc3C2C)cc1C` (stereo not drawn) reads 219 to 221 °C.
The result for `Cc1c(C(=O)NCC(=O)O)oc2cc(-c3ccc(Cn4c(C)nc5ccccc54)cc3)ccc12` reads 248 to 250 °C; that for `COC(=O)c1cc(-c2ccc(F)c(C)c2)nn(CC=Cc2ccc(Cl)cc2)c1=O`, 138 to 139 °C.
`COc1cc2c(c3c1OC(C)(C)C3)C(c1ccc(=O)n(Cc3ccc(C(N)=O)cc3)c1)=NC(C)(C)C2` yielded a melting point of 262 to 266 °C.
The compound `CN(C)NC(=O)c1nc([N+](=O)[O-])cn1C` returned a melting point of 154 °C.
Under `COC(=O)CCCON1C(=O)c2ccccc2C1=O` stands 79 to 81 °C; under `O=S1(=O)NCN(C2CC2)c2cc(Br)cc(Br)c21`, 203 to 205 °C; under `CCCCc1oc2ccccc2c1C=NOCCCOc1ccc(C(=O)O)cc1-c1ccc(C(F)(F)F)cc1`, 140 °C.
Under `CCCCOc1ccc(S(=O)(=O)C2(C(=O)O)CCN(Cc3ccc(Cl)c(Cl)c3)CC2)cc1` stands 257 °C.
The result for `CC(=O)Nc1cc(Cl)c(C(C#N)c2ccc(Cl)c(C(F)(F)F)c2)c(Cl)c1` (stereo not drawn) reads 172 °C.

By melting point is commonly meant the temperature of the solid-liquid transition.

These data come from a melting point compilation (Tetko et al.; mined from patent text by program, amines drawn as free bases though some values may be those of a salt).
